In article PMC8703884, “Synthesis and Biological Evaluation of S-, O- and Se-Containing Dispirooxindoles” (Molecules, 2021):
“Also recorded” adds a separate entry of the source. Where two headings read alike, the source gives them in different places.

How the values were obtained:
[1] = tested on: MCF7 breast cancer cell line; assay: MTT cytotoxicity test, MCF7; assay type: cell-based; conditions: Homo sapiens, 72 h incubation
Description: (§1) MTT test. […] Assays were performed in triplicates.

[2] = MTT cytotoxicity test, VA13; assay type: cell-based; conditions: human, VA13 SV40-transformed normal lung fibroblast cells, 72 h incubation
Description: as §1

[3] = tested on: LNCaP human prostate cancer cell line; assay: MTT cytotoxicity test, LNCaP; assay type: cell-based; conditions: for CC50: Homo sapiens, LNCaP, read-out: CC50, LNCaP
[4] = tested on: HCT116^−/− human colon cancer cells (p53 negative); assay: MTT cytotoxicity test, HCT116 p53-/-; conditions: HCT-116, read-out: CC50, HCT^−/−
From the text: (§2) The used models included human prostate cancer cell lines LNCaP and PC3, breast cancer cell line (MCF-7), human colon cancer cells (HCT116^+/+, p53 positive, p53^+/+ and HCT116^−/−, p53 negative, p53^−/−), human lung adenocarcinoma epithelial cell line (A549), SV40-transformed normal human lung fibroblast cells (VA13), as well as human embryonic kidney 293 cells (Hek293) stably expressing SV40 large T antigen (Hek293T). The cytotoxicity of the evaluated molecules was properly assessed using a MTT assay based on the modified approach reported by Ferrari and colleagues.
(§3) To further elucidate the dominant mode of action, we used HCT116^+/+ and HCT116^−/− cells by analogy with the paper published by Shangary and colleagues. This isogenic cell line is commonly applied to investigate the p53/MDM2-dependent mode of action.
(§4) MTT test. The MTT assay was carried out according to [35] with few modifications; 3000 Cells (for HEK293T, A549 and MCF7cell lines) or 4000 cells (for VA13 cell line) were seeded in each well of a 96-well plate. […] Assays were performed in triplicates. […] The MTT solution was then discarded and 140 µL of DMSO was added. The plates were swayed on a shaker (60 rpm) to solubilize the formazan. […] The analysis of cytotoxicity and the estimation of IC50 values were carried out with the built-in functions in the GraphPad Prism program (GraphPad Software, Inc., San Diego, CA) P53 activation.

[5] = MTT cytotoxicity test, Hek293T; assay type: cell-based; conditions: human, 72 h incubation
[6] = tested on: HCT116^+/+ human colon cancer cells (p53 positive); assay: MTT cytotoxicity test, HCT116 p53+/+; conditions: for CC50: Homo sapiens, HCT-116, read-out: CC50, HCT^+/+
From the text: as §2, §3, §4

[7] = tested on: PC3 human prostate cancer cell line; assay: MTT cytotoxicity test, PC3; assay type: cell-based; conditions: Homo sapiens
[8] = tested on: A549 human lung adenocarcinoma epithelial cell line; assay: MTT cytotoxicity test, A549; assay type: cell-based; conditions: 72 h incubation
[9] = ratio of CC50 values of the cell line pair

| melting point | SMILES | CC50 [1] | CC50 at 72 h [2] | CC50 ([3]; MTT test) | selectivity on LNCaP cells over PC3 cells ([3]; MTT test) | selectivity index S for LNCaP/PC3 cells [3, 9] | CC50 [4] | CC50 at 72 h [5] | CC50 [6] | CC50 [7] | CC50 [8] | CC50 [3] | CC50, LNCaP ([3]; MTT test) | selectivity S against HCT116^+/+ over HCT116^−/− [6, 9] |
| --- | --- | --- | --- | --- | --- | --- | --- | --- | --- | --- | --- | --- | --- | --- |
|  | COc1ccc(N2C(=O)[C@@]3(CN(C)C[C@@]34C(=O)Nc3ccc(Cl)cc34)NC2=S)cc1 (racemic) [Compound 4f, 5″-Cchloro-1′-methyl-1-(4-methoxyphenyl)-2-thioxodispiro[imidazolidine-4,3′-pyrrolidine-4′,3″-indoline]-2″,5-dione] | 2.3 ± 0.5 µM | 2.3 ± 0.4 µM | 4.5 ± 0.32 µM | selective; also recorded: moderate selectivity | 2.8 | 2.35 ± 0.95 µM | 1.1 ± 0.1 µM | 1.95 ± 0.43 µM | 12.6 ± 2.3 µM | 2.8 ± 0.4 µM |  |  |  |
| 273 to 274 °C | CN1CC2(NC(=S)N(c3ccc(F)cc3)C2=O)C2(C1)C(=O)Nc1ccc(Cl)cc12 (stereo not shown) [Compound 4n, 5″-Chloro-1′-methyl-1-(4-fluorophenyl)-2-thioxodispiro[imidazolidine-4,3′-pyrrolidine-4′,3″-indoline]-2″,5-dione] |  |  | > 100 µM |  |  | > 100 µM | 53 ± 9.5 µM | > 100 µM | > 100 µM | > 100 µM |  |  |  |
| 224 to 225 °C | CN1CC2(NC(=S)N(CCCN3CCOCC3)C2=O)C2(C1)C(=O)Nc1ccc(Cl)cc12 (stereo not shown) [Compound 4v, 5″-Chloro-1′-methyl-1-(3-morpholinopropyl)-2-thioxodispiro[imidazolidine-4,3′-pyrrolidine-4′,3″-indoline]-2″,5-dione] |  |  | > 100 µM |  |  | > 100 µM | 103 ± 27.7 µM | > 100 µM | > 100 µM | > 100 µM |  |  |  |
| 268 to 269 °C | CN1CC2(NC(=S)N(c3ccccc3)C2=O)C2(C1)C(=O)Nc1ccc(Cl)cc12 (stereo not shown) [Compound 4x, 5″-Chloro-1′-methyl-1-phenyl-2-thioxodispiro[imidazolidine-4,3′-pyrrolidine-4′,3″-indoline]-2″,5-dione] |  |  | > 100 µM |  |  | > 100 µM | > 100 µM | > 100 µM | > 100 µM | > 100 µM |  |  |  |
| 284 to 285 °C (dec.) | COc1ccc(N2C(=O)C3(CN(C)CC34C(=O)Nc3ccc(Cl)cc34)NC2=[Se])cc1 (stereo not shown) [Compound 6f, 5″-Chloro-1-(4-methoxyphenyl)-1′-methyl-2-selenoxodispiro[imidazolidine-4,3′-pyrrolidine-4′,3″-indoline]-2″,5-dione] | 20.4 ± 3.6 µM | 12.5 ± 1.5 µM |  |  |  |  | 14 ± 1.5 µM |  |  | 15.8 ± 1.5 µM |  |  |  |
| 273 to 274 °C | CCOc1ccc(N2C(=O)NC3(CN(C)CC34C(=O)Nc3ccc(Cl)cc34)C2=O)cc1 (stereo not shown) [Compound 9h, 5″-Chloro-1-(4-ethoxyphenyl)-1′-methyldispiro[imidazolidine-4,3′-pyrrolidine-4′,3″-indoline]-2,2″,5-trione] |  |  |  |  |  |  |  |  |  |  |  |  |  |
|  | COc1cc([C@@H]2c3cc4c(cc3[C@@H](O[C@@H]3O[C@@H]5CO[C@@H](C)O[C@H]5[C@H](O)[C@H]3O)[C@H]3COC(=O)[C@H]23)OCO4)cc(OC)c1O [Etoposide, reference compound] | 2.6 ± 0.9 µM |  |  |  |  | 0.85 ± 0.22 µM | 0.3 ± 0.1 µM | 0.43 ± 0.12 µM |  | 0.3 ± 0.1 µM |  |  | 1.97 |

| SMILES | melting point | CC50 [1] | CC50 at 72 h [2] | CC50 ([3]; MTT test) | selectivity on LNCaP cells over PC3 cells ([3]; MTT test) | selectivity index S for LNCaP/PC3 cells [3, 9] | CC50 [4] | CC50 at 72 h [5] | CC50 [6] | CC50 [7] | CC50 [8] | CC50 [3] | CC50, LNCaP ([3]; MTT test) | selectivity S against HCT116^+/+ over HCT116^−/− [6, 9] |
| --- | --- | --- | --- | --- | --- | --- | --- | --- | --- | --- | --- | --- | --- | --- |
| CN1CC2(NC(=[Se])N(c3ccc(F)c(Cl)c3)C2=O)C2(C1)C(=O)Nc1ccc(Cl)cc12 (stereo not shown) [Compound 6r, 5″-Chloro-1-(3-chloro-4-fluorophenyl)-1′-methyl-2-selenoxodispiro[imidazolidine-4,3′-pyrrolidine-4′,3″-indoline]-2″,5-dione] | 193 to 194 °C (dec.) |  |  |  |  |  |  | 11.9 ± 0.9 µM |  | > 50 µM | 26.5 ± 5.4 µM | 11.8 ± 1.5 µM | good activity |  |
